Source: BindingDB's records for patent US11414404 (Array BioPharma Inc., 2022)

Molecular target: Serine/threonine-protein kinase B-raf [V600E] (Homo sapiens, UniProt P15056, V600E)
Test: BRAF V600E and V600K Enzyme Assay
From the text: A competitive displacement assay was configured for B-Raf that monitors the amount of a fluorescently-tagged tracer bound to B-Raf via TR-FRET from an anti-tag Eu-labeled antibody also bound to B-Raf.

Chain of Serine/threonine-protein kinase B-raf [V600E] (P15056 2-766 V600E limits assumed): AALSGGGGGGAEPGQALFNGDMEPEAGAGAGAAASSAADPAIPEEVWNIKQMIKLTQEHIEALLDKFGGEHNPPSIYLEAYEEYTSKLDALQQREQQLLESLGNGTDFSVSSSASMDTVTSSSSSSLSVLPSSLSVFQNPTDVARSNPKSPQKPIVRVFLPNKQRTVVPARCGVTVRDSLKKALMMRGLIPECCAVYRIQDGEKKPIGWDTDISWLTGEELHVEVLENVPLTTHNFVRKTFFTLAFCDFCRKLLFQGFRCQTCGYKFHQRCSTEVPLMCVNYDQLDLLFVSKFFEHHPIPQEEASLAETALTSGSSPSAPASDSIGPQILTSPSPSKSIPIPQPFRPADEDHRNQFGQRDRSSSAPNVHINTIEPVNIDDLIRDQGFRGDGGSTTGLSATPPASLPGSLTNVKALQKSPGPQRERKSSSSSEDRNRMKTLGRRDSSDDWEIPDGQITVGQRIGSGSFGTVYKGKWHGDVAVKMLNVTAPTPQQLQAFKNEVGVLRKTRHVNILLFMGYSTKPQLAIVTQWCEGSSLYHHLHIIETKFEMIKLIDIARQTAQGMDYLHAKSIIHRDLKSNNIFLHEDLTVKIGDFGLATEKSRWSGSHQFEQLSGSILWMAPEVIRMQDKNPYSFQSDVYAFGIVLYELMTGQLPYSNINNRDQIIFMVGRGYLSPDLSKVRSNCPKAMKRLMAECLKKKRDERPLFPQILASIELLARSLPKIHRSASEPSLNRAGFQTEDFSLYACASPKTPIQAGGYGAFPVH

Row | IC50 [nM] | SMILES
1 | 63.4 | Cc1c(Nc2c(F)ccc(NS(=O)(=O)CC(C)C)c2Cl)ccc2ncn(C)c(=O)c12 [US11414404, Ex. # 51]
2 | 41.7 | Cc1c(Nc2c(F)cnc(NS(=O)(=O)CC3CC3)c2Cl)ccc2ncn(C)c(=O)c12 [US11414404, Ex. # 47]
3 | 66.1 | Cc1c(Nc2c(F)ccc(NS(=O)(=O)CC3CC3)c2Cl)ccc2ncn(C)c(=O)c12 [US11414404, Ex. # 50]
